A word on the IC50: it is the midpoint of a concentration-inhibition curve.

Where a name gives a salt, the structure may show the parent alone. Read-outs that look alike come from different tables or passages of the source.

Data set [1] can be described thus: Stability in buffer at various pH values (HPLC detection). It counts as physicochemical. Conditions: for Stability pH4: % Test Compound after 4 h [F(t = 4 h) × 100/F(t = 0 h)]: pH 4, 4 h; for Stability pH4: % Test Compound after 4 h [F(t = 4 h) × 100/F(t = 0 h)] / Stability pH7.4: % Test Compound after 4 h [F(t = 4 h) × 100/F(t = 0 h)]: 37° C., prodrug remaining; for Stability pH7.4: % Test Compound after 4 h [F(t = 4 h) × 100/F(t = 0 h)]: pH 7.4, 4 h; for recovery at 60 min, 0.2 mg/mL / recovery at 120 min, 0.2 mg/mL / recovery at 240 min, 0.2 mg/mL / recovery at 1440 min, 0.2 mg/mL: read-out: Recovery (Assay 6, prodrug stability). The protocol: Stability in Buffer at Various pH Values (HPLC Detection)
0.3 mg of the test compound was solved in 0.1 ml dimethylsulfoxide and 0.4 ml acetonitrile. For complete dissolution the HPLC vial with the sample solution was sonified for about 20 seconds. Then 1.0 ml of the respective buffer solution was added and the sample was again treated in the ultrasonic bath.
Buffer Solutions Used: • pH 4.0: Fluka buffer, Order No. 33643 (11.76 g citric acid, 2.57 g sodium chloride and 2.72 g sodium hydroxide)
pH 7.4: 90 g of sodium chloride, 13.61 g of potassium dihydrogen phosphate and 83.35 g of 1 M sodium hydroxide solution were made up to 1 L with Millipore water and then diluted 1:10.
10 μl portions of the sample solution were analysed by HPLC at different times (0 h, 1 h, 2 h, 4 h and 24 h) at 37° C. The peak areas in percentage were used for quantification.
Agilent 1100 with DAD (G1315B), binary pump (G1312A), autosampler (G1329A), column oven (G1316A), thermostat (G1330B); column: Kromasil 100 C18, 250 mm×4 mm, 5 μm; column temperature: 37° C.; eluent A: water+5 ml of perchloric acid/litre, eluent B: acetonitrile.
The ratios of the peak area (F) at different times in relation to the peak area at the starting point are shown in Table 3 for representative examples: […]

Data set [2] concerns the target T1, (recombinant) catalytic domain of human Bub1 (amino acids 704-1085) (Homo sapiens, UniProt O43683).
T1 construct: catalytic domain of human Bub1 (amino acids 704-1085); 6xHis (N); made in house; host or cells: Hi5 insect cells
Nature of the data set: Equilibrium probe competition assay (TR-FRET kinase binding assay). As to conditions: read-out: IC50 (Assay 5, probe competition). The text has this:
Equilibrium Probe Competition Assay:
Bub1 binding affinity of compounds described in the present invention were quantified using a time-resolved fluorescence energy transfer (TR-FRET) kinase binding assay which measures displacement of the synthetic fluorescent probe 5-[({2-[2-({2-[1-(4-ethoxy-2,6-difluorobenzyl)-1H-indazol-3-yl]-4-(pyridin-4-ylamino)pyrimidin-5-yl}oxy)ethoxy]ethyl}carbamothioyl)amino]-2-(6-hydroxy-3-oxo-3H-xanthen-9-yl)benzoic acid (5-5-1) by the (recombinant) catalytic domain of human Bub1 (amino acids 704-1085). The enzyme was expressed in Hi5 insect cells with N-terminal 6×His/AviTag@ seqences, purified by affinity-(Ni-NTA) and size exclusion chromatography and site-specific biotinylated ex-vivo using a commercially available kit (Avidity).
In a typical assay 11 different concentrations of each compound (0.1 nM, 0.33 nM, 1.1 nM, 3.8 nM, 13 nM, 44 nM, ˜0.15 μM, ˜0.51 μM, ˜1.7 μM, 5.9 μM and 20 μM) were tested in duplicate within the same microtiter plate. To this end, 100-fold concentrated compound solutions (in DMSO) were made by serial dilution (1:3.4) of freshly prepared 2 mM stocks in a clear low volume 384-well source microtiter plate (Greiner Bio-One, Frickenhausen, Germany), from which 50 nl of compounds were transferred into a black low volume test microtiter plate from the same supplier. Subsequently 2 μL of a solution containing biotinylated Bub1 (the final concentration of Bub1 was adjusted depending on the activity of the enzyme lot in order to be within the linear dynamic range of the assay: typically ˜200 pM were used) and 1 nM Streptavidin Terbium Cryptate (Cisbio, No. 610SATLB) in aqueous assay buffer [50 mM Tris/HCl pH 7.5, 200 mM potassium chloride (KCl), 1.0 mM dithiothreitol (DTT), 0.1 mM sodium ortho-vanadate, 1% (v/v) glycerol, 0.01% (w/v) bovine serum albumine (BSA), 0.005% (v/v) Triton X-100 (Sigma), were added to the compounds in the test plate and the mixture was incubated for 15 min at 22′C to allow pre-equilibration of the putative enzyme-inhibitor complexes before the start of the probe competition reaction, which was initiated by the addition of 3 μL 1.67-fold concentrated solution (in assay buffer) of 5-5-1 (final concentration: 1.5 nM). The resulting mixture (5 μL final volume) was Incubated at 220 during 0, 15, 30, 60, 120, 240 and 1440 min. After each time point the resonance energy transfer from the Streptavidin Tb cryptate to the 3′,6′-dihydroxy-3H-spiro[2-benzofuran-1,9′-xanthen]-3-one moiety of 5-5-1 was measured in order to quantify the amount of fluorescent probe displaced by the test compounds. To this end, the fluorescence emissions at 520 nm and 490 nm after excitation at 330-350 nm were measured in a Pherastar FS TR-FRET plate reader, (BMG Lab technologies, Offenburg, Germany) and the ratio of the emissions (520 nm/490 nm) was taken as Indicator for the amount of Bub1/5-5-1 equilibrium complexes. The data were normalized using two sets of control wells for high-(=enzyme reaction without inhibitor=0%=Minimum inhibition) and low-(=all assay components without enzyme=100%=Maximum inhibition) Bub1 activity. IC50 values were calculated by fitting the normalized inhibition data to a 4-parameter logistic equation (Minimum, Maximum, IC50, Hill; Y=Max+(Min−Max)/(1+(X/IC50)Hill)).

Turning to `CCOc1cc(F)c(Cn2nc(-c3ncc(OCCCOC(=O)[C@H](C)NC(=O)[C@@H](N)CCCNC(=N)N)c(Nc4ccncc4Cl)n3)c3ccccc32)c(F)c1` [Example 4-1-8, 3-({4-[(3-chloropyridin-4-yl)amino]-2-[1-(4-ethoxy-2,6-difluorobenzyl)-1H-indazol-3-yl]pyrimidin-5-yl}oxy)propyl L-arginyl-L-alaninate], in data set [1], the “Stability pH4: % Test Compound after 4 h [F(t = 4 h) × 100/F(t = 0 h)]” value (“Stability pH4: % Test Compound after 4 h” for short) is 100% and the “Stability pH7.4: % Test Compound after 4 h [F(t = 4 h) × 100/F(t = 0 h)]” value (“Stability pH7.4: % Test Compound” for short) is listed as 56%.
In the same order, the values of `CCOc1cc(F)c(Cn2nc(-c3ncc(OCCCOC(=O)[C@H](C)NC(=O)[C@@H](N)CCCCN)c(Nc4cc(C)ncc4C)n3)c3ccccc32)c(F)c1` [Example 4-1-7, 3-({4-[(2,5-dimethylpyridin-4-yl)amino]-2-[1-(4-ethoxy-2,6-difluorobenzyl)-1H-indazol-3-yl]pyrimidin-5-yl}oxy)propyl L-lysyl-L-alaninate, salt with trifluoroaceticacid] are 99% and 43%.
Consider `CCOc1cc(F)c(Cn2nc(-c3ncc(OCCCOC(=O)[C@H](C)NC(=O)[C@@H](N)CCCCN)c(Nc4ccncc4Cl)n3)c3ccccc32)c(F)c1` [Example 4-1-5, 3-({4-[(3-chloropyridin-4-yl)amino]-2-[1-(4-ethoxy-2,6-difluorobenzyl)-1H-indazol-3-yl]pyrimidin-5-yl}oxy)propyl L-lysyl-L-alaninate, salt with trifluoroaceticacid], for which, in data set [1], the recovery at 60 min, 0.2 mg/mL is 81%. Moreover, the recovery at 120 min, 0.2 mg/mL in data set [1] is 65%. Moreover, the recovery at 240 min, 0.2 mg/mL in data set [1] came to 42%. In data set [1], the recovery at 1440 min, 0.2 mg/mL came to 0%. In addition, the “Stability pH4: % Test Compound after 4 h” value in data set [1] is given as 101%. In data set [1], the “Stability pH7.4: % Test Compound” value stood at 42%. The IC50 in data set [2] (Time 15 min) came out at 1500 pM; in data set [2] (Time 30 min) it was 820 pM; in data set [2] (Time 60 min) it was 600 pM; in data set [2] (Time 90 min) it was 510 pM; in data set [2] (Time 120 min), 460 pM; in data set [2] (Time 240 min), 270 pM. In addition, in data set [2] (Time 1440 min), the IC50 worked out at 250 pM.
As to `CCOc1cc(F)c(Cn2nc(-c3ncc(OCCCOC(=O)[C@H](C)NC(=O)[C@@H](N)CCCCN)c(Nc4ccnc(NC(C)=O)c4)n3)c3ccccc32)c(F)c1` [Example 4-1-2, 3-[(4-{[2-(acetylamino)pyridin-4-yl]amino}-2-[1-(4-ethoxy-2,6-difluorobenzyl)-1H-indazol-3-yl]pyrimidin-5-yl)oxy]propyl L-lysyl-L-alaninate, salt with trifiuoroaceticacid], in data set [1], the “Stability pH4: % Test Compound after 4 h” value came to 100% and the “Stability pH7.4: % Test Compound” value is given as 30%.
For the compound `CCOc1cc(F)c(Cn2nc(-c3ncc(OCCCOC(=O)[C@@H](NC(=O)[C@@H](N)CCCCN)C(C)C)c(Nc4ccncc4Cl)n3)c3ccccc32)c(F)c1` [Example 4-1-9, 3-({4-[(3-chloropyridin-4-yl)amino]-2-[1-(4-ethoxy-2,6-difluorobenzyl)-1H-indazol-3-yl]pyrimidin-5-yl}oxy)propyl L-lysyl-L-valinate], in data set [1], the “Stability pH4: % Test Compound after 4 h” value is listed as 99% and the “Stability pH7.4: % Test Compound” value was 99%.
Turning to `CCOc1cc(F)c(Cn2nc(-c3ncc(OCCCOC(=O)[C@H](C)NC(=O)[C@@H](N)CCCCN)c(Nc4ccnc(C(F)F)c4)n3)c3ccccc32)c(F)c1` [Example 4-1-1, 3-[(4-{[2-(difluoromethyl)pyridin-4-yl]amino}-2-[1-(4-ethoxy-2,6-difluorobenzyl)-1H-Indazol-3-yl]pyrimidin-5-yl)oxy]propyl L-lysyl-L-alaninate, salt with trifluoroaceticacid], the recovery at 60 min, 0.2 mg/mL in data set [1] was determined as 76%. Also, in data set [1], the recovery at 120 min, 0.2 mg/mL was found to be 57%. Besides, the recovery at 240 min, 0.2 mg/mL in data set [1] amounted to 32%. For the same compound, the recovery at 1440 min, 0.2 mg/mL in data set [1] was found to be 0%. Also, the “Stability pH4: % Test Compound after 4 h” value in data set [1] is 100%. For the same compound, in data set [1], the “Stability pH7.4: % Test Compound” value came out at 32%. The concentration for half-maximal inhibition (IC50) in data set [2] (Time 15 min) worked out at 1400 pM; in data set [2] (Time 30 min), 1500 pM; in data set [2] (Time 60 min) it was 1400 pM; in data set [2] (Time 90 min), 1500 pM; in data set [2] (Time 120 min), 1300 pM; in data set [2] (Time 240 min), 1500 pM. In addition, the IC50 in data set [2] (Time 1440 min) was 2000 pM.
As to `CCOc1cc(F)c(Cn2nc(-c3ncc(OCCCOC(=O)[C@H](C)NC(=O)[C@@H](N)CCCNC(=N)N)c(Nc4ccnc(NC(C)=O)c4)n3)c3ccccc32)c(F)c1` [Example 4-1-4, 3-[(4-{[2-(acetylamino)pyridin-4-yl]amino}-2-[1-(4-ethoxy-2,6-difluorobenzyl)-1H-indazol-3-yl]pyrimidin-5-yl)oxy]propyl L-arginyl-L-alaninate, salt with trifiuoroaceticacid], in data set [1], the recovery at 60 min, 0.2 mg/mL was found to be 86%. Also, the recovery at 120 min, 0.2 mg/mL in data set [1] is 73%. In addition, in data set [1], the recovery at 240 min, 0.2 mg/mL is 53%. For the same compound, the recovery at 1440 min, 0.2 mg/mL in data set [1] was determined as 3%. Moreover, the “Stability pH4: % Test Compound after 4 h” value in data set [1] was 100%. For the same compound, the “Stability pH7.4: % Test Compound” value in data set [1] worked out at 53%. Besides, the IC50 in data set [2] (Time 15 min) worked out at 2800 pM; in data set [2] (Time 30 min), 580 pM; in data set [2] (Time 60 min), 610 pM; in data set [2] (Time 90 min), 550 pM; in data set [2] (Time 120 min), 540 pM; in data set [2] (Time 240 min), 320 pM. In addition, in data set [2] (Time 1440 min), the IC50 worked out at 330 pM.
`CCOc1cc(F)c(Cn2nc(-c3ncc(OCCCOC(=O)[C@H](C)NC(=O)[C@H](N)CCCCN)c(Nc4cc(C)ncc4C)n3)c3ccccc32)c(F)c1` [Example 4-1-6, 3-({4-[(2,5-dimethylpyridin-4-yl)amino]-2-[1-(4-ethoxy-2,6-difluorobenzyl)-1H-indazol-3-yl]pyrimidin-5-yl}oxy)propyl D-lysyl-L-alaninate, salt with trifluoroaceticacid]: in data set [1], the “Stability pH4: % Test Compound after 4 h” value turned out to be 101% and the “Stability pH7.4: % Test Compound” value is 53%.

Source of the values: patent publication US20170305882A1, “BENZYL SUBSTITUTED INDAZOLES AS BUB1 KINASE INHIBITORS” (Bayer Pharma Aktiengesellschaft, priority 2014, published 2017).
